The structures appear in SMILES notation. Values after ≈ are worked out from the molar mass of the structure shown. A value given as a limit tells only on which side of the number the result lay.

Here are results for 22 molecules from PMC8713996, “An anti-tuberculosis compound screen using a zebrafish infection model identifies an aspartyl-tRNA synthetase inhibitor” (Disease Models & Mechanisms, 2021).

The test system of test [1] is M. marinum-tdTomato yolk-infected zebrafish embryos. To be noted: in vivo.
Test [2] deals with M. tuberculosis H37Rv. Nature of the test: microbe, parasite or virus in culture. In kind it is cell-based. To be noted: Mycobacterium tuberculosis, read-out: MIC90 Mtb in vitro; for IC90: 144 h.
For test [3], the system named is Mtb-infected THP-1 macrophages. Nature of the test: microbe, parasite or virus in culture. In kind it is cell-based, Mycobacterium tuberculosis. Particulars: for MIC50 / IC50: Mycobacterium tuberculosis, read-out: MIC50 Mtb ex vivo; for IC50: THP-1, 96 h.
Test [4] relates to M. marinum M^USA. Nature of the test: microbe, parasite or virus in culture. The format is cell-based. To be noted: Mycobacterium marinum, read-out: MIC90 Mmar in vitro.

Consider `CC(C)=CCC/C(C)=C/CNCCNC1C2CC3CC(C2)CC1C3` (stereo not drawn) [SQ109], for which, in test [1], the “Bacterial load (integrated red fluorescence) in infected embryos vs DMSO” value (from here on “Bacterial load … vs DMSO”) is given as “significant reduction of the bacterial signal”. `CC12CC3CC(C)(C1)CC(C(=O)Nc1nc4ccccc4s1)(C3)C2` [TBA8]: in test [2], the MIC90 came to 15.8 ± 7.5 µM (≈ 5.38 µg/mL). The MIC50 in test [3] is 6.9 ± 8.7 µM (≈ 2.35 µg/mL).

Take `COc1ccc(Cc2nn3c(-c4ccccc4)nnc3s2)cc1` [TBA29]: the MIC90 in test [2] amounted to 3.6 ± 0.9 µM (≈ 1.16 µg/mL). For the same molecule, the MIC50 in test [3] was 6.1 ± 4 µM (≈ 1.97 µg/mL). Consider `CC(C)C(=O)Nc1ccc(C(=O)Oc2ccccc2)c(O)c1` [TBA32], for which the MIC90 in test [2] was determined as 2 ± 0.5 µM (≈ 0.599 µg/mL). For the same molecule, in test [3], the MIC50 was determined as 9.6 ± 16.6 µM (≈ 2.87 µg/mL).

On to `O=C(Nc1ccc(Cl)cc1)NC1CC2CCC1C2` (stereo not drawn) [TBA37], for which, in test [2], the MIC90 was 13.6 ± 4.3 µM (≈ 3.6 µg/mL). The MIC50 in test [3] was 5.5 ± 3.6 µM (≈ 1.46 µg/mL).

For `Cc1ccc(-c2nnc3sc(Cc4ccccc4)nn23)cc1` [TBA38], in test [2], the MIC90 was 9.9 ± 1.9 µM (≈ 3.03 µg/mL). In test [3], the MIC50 came out at 5.6 ± 3.4 µM (≈ 1.72 µg/mL).

As for `Cc1ccc(NC(=O)C23CC4CC(CC2C4)C3)cc1` [TBA52], in test [2], the IC90 was found to be 9.6 ± 5.3 µM. Moreover, the IC50 in test [3] is 4.2 ± 6 µM.

Consider `COc1cccc(OCCNC(=O)c2cc([N+](=O)[O-])cc([N+](=O)[O-])c2)c1` [TBA57], for which the MIC90 in test [2] was 1.7 ± 3.1 µM (≈ 0.614 µg/mL). Also, the MIC50 in test [3] is 1.6 ± 0.7 µM (≈ 0.578 µg/mL). For the molecule `O=C(OCC(=O)c1c[nH]c2ccccc12)c1ccc([N+](=O)[O-])s1` [TBA61], in test [2], the MIC90 turned out to be 2.2 ± 0.2 µM (≈ 0.727 µg/mL). For the same molecule, in test [3], the “Intracellular activity (bacterial viability, macrophage protection)” value is “did not show activity” and the MIC50 was > 30 µM.

Take `COc1ccc(CNC(=O)c2c(C)nc3ccccn23)cc1` [TBA117]: the MIC90 in test [2] amounted to 4 ± 1.4 µM (≈ 1.18 µg/mL). Moreover, the MIC50 in test [3] stood at 0.4 ± 0.1 µM (≈ 0.118 µg/mL). For `Cc1nc2ccccn2c1C(=O)NCc1ccc2c(c1)OCO2` [TBA120], in that order: 5.9 ± 2.6 µM (≈ 1.83 µg/mL) and 0.5 ± 0.2 µM (≈ 0.155 µg/mL). As to `CC(C)(C)c1ccc(Cn2cnc([N+](=O)[O-])n2)cc1` [TBA139], in test [2], the IC90 was 11.8 ± 12.4 µM. The IC50 in test [3] came to 4.6 ± 7.1 µM.

On to `O=C(Nc1ccc(F)cc1)NC1CCCCCCC1` [TBA145], for which the MIC90 in test [2] came to 19 ± 5.7 µM (≈ 5.02 µg/mL). In addition, the MIC50 in test [3] was determined as 8 ± 14.2 µM (≈ 2.11 µg/mL).

For `O=c1c2ccccc2oc2nc3n(c(=O)c12)CCCS3` [TBA161-A, 3,4-dihydro-chromeno[2′,3′:4,5]pyrimido[2,1-b][1,3]thiazine-6,7-dione], the MIC90 in test [2] stood at 3.8 ± 3.1 µM (≈ 1.09 µg/mL); in test [4] it was 2.8 ± 1.7 µM (≈ 0.802 µg/mL). The MIC50 in test [3] is 1.1 ± 0.9 µM (≈ 0.315 µg/mL). As to `CCc1cccc2c(C(=O)COC(=O)c3ccc([N+](=O)[O-])s3)c[nH]c12` [TBA172], in test [2], the MIC90 is 2.4 ± 0.4 µM (≈ 0.86 µg/mL). For the same molecule, in test [3], the “Intracellular activity (bacterial viability, macrophage protection)” value is recorded as “did not show activity” and the MIC50 is > 30 µM. For `COc1nc2ccc(Br)cc2cc1[C@@H](c1ccccc1)[C@@](O)(CCN(C)C)c1cccc2ccccc12` [bedaquiline], the “Bacterial load … vs DMSO” value in test [1] is “significant reduction of the bacterial signal”. Regarding `C[C@]1(COc2ccc(N3CCC(Oc4ccc(OC(F)(F)F)cc4)CC3)cc2)Cn2cc([N+](=O)[O-])nc2O1` [delamanid], the “Bacterial load … vs DMSO” value in test [1] is on record as “significant reduction of the bacterial signal”. The same measure, in the same setting: with `CCc1cc(C(N)=S)ccn1` [ethionamide] the entry was “significant reduction of the bacterial signal”; with `O=c1nc(N2CCN(CC3CCCCC3)CC2)sc2c([N+](=O)[O-])cc(C(F)(F)F)cc12` [macozinone], “significant reduction of the bacterial signal”. In the case of `O=[N+]([O-])c1cn2c(n1)OC[C@@H](OCc1ccc(OC(F)(F)F)cc1)C2` [pretonamid], in test [1], the “Bacterial load … vs DMSO” value is recorded as “significant reduction of the bacterial signal”.

For the molecule `CO[C@H]1/C=C/O[C@@]2(C)Oc3c(C)c(O)c4c(O)c(c(/C=N/N5CCN(C)CC5)c(O)c4c3C2=O)NC(=O)/C(C)=C\C=C\[C@H](C)[C@H](O)[C@@H](C)[C@@H](O)[C@@H](C)[C@H](OC(C)=O)[C@@H]1C` [rifampicin], the “Bacterial load … vs DMSO” value in test [1] was “significant reduction of the bacterial signal”. The same measure, in the same setting: with `CC(=O)NC[C@H]1CN(c2ccc(N3CCSCC3)c(F)c2)C(=O)O1` [sutezolid] the entry was “significant reduction of the bacterial signal”.
